Test results taken from patent US10100129B2, “Antibodies against CD73 and uses thereof” (BRISTOL-MYERS SQUIBB COMPANY, priority 2014, dated 2018).
Blank lines part the entries; values can stand above or below the molecule they belong to.

Tests used:
CD73 on Calu6 cells = target: T1, CD73 on Calu6 cells (Homo sapiens, UniProt P21589); assay: Dual cell line HTRF cAMP assay (Calu-6 and HEK293/A2AR cells); type: cell-based
T1 construct: Calu6 (CD73 endogenous expressors; human pulmonary adenocarcinoma cell line); endogenous in cells; host or cells: Calu6, NCI-H292, SK-MEL-24, SNU-C1, NCI-H1437, H2228, HCC15, H2030 and further human tumour lines
T1 sequence (P21589 27-549): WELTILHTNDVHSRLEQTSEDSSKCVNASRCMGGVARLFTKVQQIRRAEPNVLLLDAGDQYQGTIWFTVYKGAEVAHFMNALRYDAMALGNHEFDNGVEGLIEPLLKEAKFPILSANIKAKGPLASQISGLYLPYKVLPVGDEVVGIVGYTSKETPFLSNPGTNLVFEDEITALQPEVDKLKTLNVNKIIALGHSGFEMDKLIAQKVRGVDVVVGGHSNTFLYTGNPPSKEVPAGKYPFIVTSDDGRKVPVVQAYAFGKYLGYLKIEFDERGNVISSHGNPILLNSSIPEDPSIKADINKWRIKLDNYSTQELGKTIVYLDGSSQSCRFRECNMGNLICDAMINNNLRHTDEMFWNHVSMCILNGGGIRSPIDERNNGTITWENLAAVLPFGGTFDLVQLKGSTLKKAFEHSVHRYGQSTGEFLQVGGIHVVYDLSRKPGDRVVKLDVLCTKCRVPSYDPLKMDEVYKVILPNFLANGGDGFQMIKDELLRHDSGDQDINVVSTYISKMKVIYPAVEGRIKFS
Method: Inhibition of CD73 Enzymatic Activity in a Dual Cell Line cAMP Assay Homogenous Time Resolved Fluorescence (HTRF) cAMP Assay
CD73 antibodies were serial diluted with PBS buffer containing 0.2% BSA, and plated 5 μl/well in 384 well white bottom proxiplate (PerkinElmer, Waltham, Mass.). Calu-6 cells were harvested and resuspend in PBS containing 0.2% BSA, then 5 μl of cells (300 cells/well) were added to the plate. The cells were incubated with antibodies for 10 minutes at 37° C. […] The cells were further incubated with AMP for 30 minutes at 37° C. During this time, HEK293/A2AR cells were harvested and diluted to 0.4 million/ml in PBS containing 0.2% BSA. […] HRTF assays were performed using the homogenous time-resolved fluorescence (HTRF) HiRange cAMP detection kit (Cisbio, Bedford, Mass.) by adding 10 μl/well cAMP-conjugated d2 and 10 μl/well europium cryptate conjugated anti-cAMP antibody in lysis buffer according to the manufacturer's instructions. Plates were incubated at room temperature for 60 minutes and Fluorescence Resonance Energy Transfer (FRET) signals (665 and 615 nM) were read using an EnVision plate reader (PerkinElmer, Waltham, Mass.). The FRET signal was calculated as the ratio of signal from the 665 nm (acceptor) and 615 nm (donor) channels and multiplied by 10.000. IC50 and Ymax were measured. […]

human FcγRs = assay: SPR binding profile to human FcγRs (panel)
Method: Binding of the constructs to human FcγRs was measured via SPR. hCD64 and hCD32a-H131 binding data for IgG1.1 and IgG2 molecules were consistent with expected values for the different Fcs. IgG1.1f is the most inert Fc.
The binding of antibodies to Fc gamma receptors (FcγRs or FcgRs) was studied using biosensor technologies including Biacore surface plasmon resonance (SPR) and Fortebio Biolayer Interferometry (BLI). SPR studies were performed on a Biacore T100 instrument (GE Healthcare) at 25° C. The Fab fragment from a murine anti-6×His antibody was immobilized on a CM5 sensor chip using EDC/NHS to a density of ˜3000 RU. Various his-tagged FcgRs (7 ug/ml) were captured via the C-terminal his-tag using a contact time of 30 s at 10 ul/min, and the binding of 1.0 μM antibody was evaluated in a running buffer of 10 mM NaPO4, 130 mM NaCl, 0.05% p20 (PBS-T) pH 7.1. FcgRs used for these experiments included CD64 (FcgRI), CD32a-H131 (FcgRIIa-H131), CD32a-R131 (FcgRIIa-R131), CD32b (FcgRIIb), CD16a-V158 (FcgRIIIa-V158), CD16b-NA1 (FcgRIIIb-NA1), and CD16B-NA2 (FcgRIIIb-NA2). BLI experiments were performed on a Fortebio Octet RED instrument (Pall, Fortebio) at 25° C. in 10 mM NaPO4, 130 mM NaCl, 0.05% p20 (PBS-T) pH 7.1. Antibodies were captured out of undiluted expression supernatants on protein A coated sensors, followed by the binding of 1 μM hCD32a-H131, hCD32a-R131, hCD32b, hCD16a-V158, or 0.1 μM hCD64 analytes.
This engineering strategy was further explored by producing other antibodies formatted with IgG2.3G1-AY, IgG2.3G1-AY-S267E (IgG2.3G1-AY-V27), as well as IgG2-B-form variants (IgG2.5G1-AY and IgG2.5G1-AY-V27), and other hybrid antibodies containing different combinations of IgG1 and IgG2 constant domains, and testing the binding of these antibodies to anti-his Fab captured his-tagged FcgRs using Biacore SPR technology.

cyno FcγRs = assay: SPR binding to cyno FcγRs; design: species or system cynomolgus; conditions: read-out: binding affinity to cyno FcγRs

Molecule: Nc1ncnc2c1ncn2[C@@H]1O[C@H](COP(=O)(O)CP(=O)(O)O)[C@@H](O)[C@H]1O [APCP]
- IC50 (CD73 on Calu6 cells; cAMP assay): 1.29 nM
- Ymax (CD73 on Calu6 cells; percentage of inhibition relative to 100 nM 11F11 set to 100%): 97

- Kd (human FcγRs; read-out: binding affinity to all other FcγRs): < 5000 nM
- Kd (cyno FcγRs): > 5000 nM
Molecule: IgG2-C219S-G1.1f: effectorless IgG1/IgG2 hybrid constant region: CH1 and hinge from IgG2 (C219S), CH2 and CH3 of IgG1 (A330S/P331S); SEQ ID NO:169

B1: IgG2.3plusTHT: modified IgG2.3 constant region construct (protein)
chain: ASTKGPSVFPLAPCSRSTSESTAALGCLVKDYFPEPVTVSWNSGALTSGVHTFPAVLQSSGLYSLSSVVTVPSSNFGTQTYTCNVDHKPSNTKVDKTVERKSCVETHTCPPCPAPPVAGPSVFLFPPKPKDTLMISRTPEVTCVVVDVSHEDPEVQFNWYVDGVEVHNAKTKPREEQFNSTFRVVSVLTVVHQDWLNGKEYKCKVSNKGLPAPIEKTISKTKGQPREPQVYTLPPSREEMTKNQVSLTCLVKGFYPSDIAVEWESNGQPENNYKTTPPMLDSDGSFFLYSKLTVDKSRWQQGNVFSCSVMHEALHNHYTQKSLSLSPGK
modifications: Synthetic: IgG2.3-plusTHT
notes: modified IgG2.3 constant region construct
- FcgR binding properties by SPR (in words) (human FcγRs): unable to retain IgG1f-like FcgR binding properties

B2: IgG2.3plusGGG: modified IgG2.3 constant region construct (protein)
chain: ASTKGPSVFPLAPCSRSTSESTAALGCLVKDYFPEPVTVSWNSGALTSGVHTFPAVLQSSGLYSLSSVVTVPSSNFGTQTYTCNVDHKPSNTKVDKTVERKSCVEGGGCPPCPAPPVAGPSVFLFPPKPKDTLMISRTPEVTCVVVDVSHEDPEVQFNWYVDGVEVHNAKTKPREEQFNSTFRVVSVLTVVHQDWLNGKEYKCKVSNKGLPAPIEKTISKTKGQPREPQVYTLPPSREEMTKNQVSLTCLVKGFYPSDIAVEWESNGQPENNYKTTPPMLDSDGSFFLYSKLTVDKSRWQQGNVFSCSVMHEALHNHYTQKSLSLSPGK
modifications: Synthetic: IgG2.3-plusGGG
notes: as for B1
- FcgR binding properties by SPR (in words) (human FcγRs): unable to retain IgG1f-like FcgR binding properties
